Measured values taken from patent US20250228865A1, “COMPOUNDS FOR ENHANCING READ THROUGH OF GENES CONTAINING PREMATURE TERMINATION CODONS AND METHODS FOR MAKING AND USING THE SAME” (Sanofi US Services Inc., priority 2022, published 2025).
pEC50: −log10 of the molar value. Read-outs that look alike come from different tables or passages of the source.

Legend:
[1] = test system: recombinant human CFTR carrying the premature stop codon (PTC) mutation G542X; experiment: CFTR-PTC mutant translation readthrough, Nanoluc tagged CFTR luminescence (G542X cell line); format: cell-based; conditions: in combination with G418, G542X cell line; for CFTR G542X ACTIVITY Fold 10 μM G-418: fold over 10 μM G-418; for pEC50: 16HBE cells
Experimental: (§1) 16HBE human bronchial epithelial cells (stably over-expressing recombinant human CFTR carrying the premature stop codon (PTC) mutation G542X or R1162X along with a Nanoluc tag incorporated into the CFTR channel within extracellular loop 4 in G542X cell line or C-terminus end in the R1162X cell line were seeded at 0.01×10^6 cells/well and grown in Minimal Essential Medium (MEM) as monolayers in 384 well plates and incubated at 37° C. with 5% CO2. Media was changed every other day until day of experiment. Agents to be evaluated were made up in separate 384 well, polypropylene plates at a 2X the final desired test concentration. Test agent 10-point concentration response curves were constructed using the Labcyte Echo 555 acoustic dispenser. Test agents were typically tested at a max final test concentrations of 50 μM with sequential 2-fold lower concentrations below this in the absence or presence of a fixed 10 μM concentration of the aminoglycoside G418 made up in MEM growth media (reduced Serum Media+HEPES Buffer+2.4 g/L Sodium Bicarbonate+L-Glutamine containing CFTR corrector VX-809 (3 μM)). Treatment with 10 μM G418 alone produced approximately 10% of the response observed with a maximally effective concentration of G418 (typically 125-250 μM). Test agent effects in presence of 10 μM G418 were compared to control wells on the plate containing a maximally effective concentration of G418 (typically 125-250 μM) made up in the same media. 25 ul of test agents/control solutions were transferred from the compound plate to the cell plate, which already contained 25 ul/well of cell plating media, using an Integra Viaflo 384. Cell plates were incubated with the compounds for 48 hours, at which time they were processed using Nanoluc luminescence Kit (Promega Nano-Glo Live Cell Assay System) to measure CFTR-PTC mutant translation readthrough. Luminescence was measured as follows. Cell plates were removed from the incubator and allowed to equilibrate to room temperature for 20 minutes. Media was removed from all wells and the plates were blotted to remove excess remaining volume. Nano-Glo Live Cell Substrate was diluted 1:20 in the appropriate amount of Nano-Glo LCS Dilution Buffer to accommodate the number of cell plates being tested. The substrate/dilution buffer mix was then diluted 1:3 with MEM media to make the appropriate volume for the number of plates being tested. The substrate/dilution buffer/OptiMEM mix was added across the Nanoluc testing cell plates and the plates were read for luminescence signal immediately. Test agent effects on CFTR translation readthrough was determined by normalizing any observed increase in luminescence induced by 48 hours pretreatment with test compound to the magnitude of luminescence increase produced by pretreatment with a maximally effective concentration of the reference readthrough enhancing agent G418 (125-250 μM).

[2] = test system: recombinant human CFTR carrying the premature stop codon (PTC) mutation R1162X; experiment: CFTR-PTC mutant translation readthrough, Nanoluc tagged CFTR luminescence (R1162X cell line); format: cell-based; conditions: for CFTR R1162X ACTIVITY Fold 10 μM G-418: fold over 10 μM G-418, in combination with G418
Experimental: as §1

[3] = in combination with G418, 16HBE cells, read-out: CFTR R1162X ACTIVITY EC50
[4] = read-out: CFTR R1162X ACTIVITY EC50, in combination with G418, 16HBE cells

Structure (SMILES) | pEC50 [1] | pEC50 [2, 3] | CFTR G542X ACTIVITY Fold 10 μM G-418 [1] | CFTR R1162X ACTIVITY Fold 10 μM G-418 [2] | pEC50 [2, 4]
OCCn1cnc(Nc2ccc(OCc3c(Cl)cccc3Cl)cn2)n1 | 5.00 to 6.00 | 5.00 to 6.00 | A′ (A′ = ≥10X) | A′ (A′ = ≥10X) | –
O=C1OC(CO)CN1c1ccc(OCc2c(Cl)ccc(F)c2Cl)cc1 (stereo not shown) | 5.00 to 6.00 | 5.00 to 6.00 | A′ (A′ = ≥10X) | B′ (B′ = ≥5X to <10X) | –
O=C1OC(CO)CN1c1ccc(OCc2c(Cl)cc(F)cc2Cl)cc1 (stereo not shown) | < 5.00 | < 5.00 | B′ (B′ = ≥5X to <10X) | B′ (B′ = ≥5X to <10X) | –
O=C1OC(CO)CN1c1ncc(OCc2c(Cl)cccc2C(F)(F)F)cn1 (stereo not shown) | 5.00 to 6.00 | 5.00 to 6.00 | A′ (A′ = ≥10X) | A′ (A′ = ≥10X) | –
O=C1OC(CO)CN1c1ccc(OCc2c(Cl)cccc2C(F)(F)F)cn1 (stereo not shown) | > 6.00 | 5.00 to 6.00 | A′ (A′ = ≥10X) | A′ (A′ = ≥10X) | –
CN1C(=O)CN(c2ncc(OCc3c(Cl)cccc3C(F)(F)F)cn2)CC1CO (stereo not shown) | > 6.00 | 5.00 to 6.00 | C′ (C′ = <5X) | C′ (C′ = <5X) | –
NC(=O)C1CN(c2ncc(OCc3c(Cl)cccc3C(F)(F)F)cn2)CC(=O)N1 (stereo not shown) | 5.00 to 6.00 | 5.00 to 6.00 | C′ (C′ = <5X) | C′ (C′ = <5X) | –
Clc1cccc(Cl)c1COc1cnc(N2CC3CC2CO3)nc1 (stereo not shown) | 5.00 to 6.00 | 5.00 to 6.00 | A′ (A′ = ≥10X) | A′ (A′ = ≥10X) | –
O=C1OCC2CN(c3ncc(OCc4c(Cl)cccc4Cl)cn3)CCN12 (stereo not shown) | 5.00 to 6.00 | 5.00 to 6.00 | A′ (A′ = ≥10X) | B′ (B′ = ≥5X to <10X) | –
[2H]C([2H])(O)c1ncn(-c2ccc(OC([2H])([2H])c3c(Cl)cccc3C(F)(F)F)cc2)n1 | > 6.00 | > 6.00 | C′ (C′ = <5X) | C′ (C′ = <5X) | –
Cc1cccc(C(F)(F)F)c1COc1cnc(-n2ccc(CO)n2)nc1 | > 6.00 | > 6.00 | A′ (A′ = ≥10X) | A′ (A′ = ≥10X) | –
OCc1cn(-c2ccc(OCc3c(Cl)cccc3C(F)(F)F)cn2)cn1 | > 6.00 | 5.00 to 6.00 | A′ (A′ = ≥10X) | A′ (A′ = ≥10X) | –
OCc1cn(-c2ncc(OCc3c(Cl)cccc3C(F)(F)F)cn2)cn1 | > 6.00 | > 6.00 | C′ (C′ = <5X) | C′ (C′ = <5X) | –
OCc1cn(-c2ncc(OCc3c(Cl)cccc3C(F)(F)F)cn2)nn1 | 5.00 to 6.00 | 5.00 to 6.00 | A′ (A′ = ≥10X) | A′ (A′ = ≥10X) | –
Cc1cccc(C(F)(F)F)c1COc1cnc(-n2cc(CO)nn2)nc1 | 5.00 to 6.00 | 5.00 to 6.00 | A′ (A′ = ≥10X) | A′ (A′ = ≥10X) | –
Cc1cccc(C(F)(F)F)c1COc1cnc(-n2cnc(CO)c2)nc1 | > 6.00 | > 6.00 | A′ (A′ = ≥10X) | A′ (A′ = ≥10X) | –
Cc1cccc(C(F)(F)F)c1COc1ccc(-n2cnc(CO)c2)nc1 | > 6.00 | 5.00 to 6.00 | A′ (A′ = ≥10X) | A′ (A′ = ≥10X) | –
OCc1ncn(-c2ncc(OCc3c(Cl)cccc3Cl)cn2)n1 | 5.00 to 6.00 | 5.00 to 6.00 | C′ (C′ = <5X) | C′ (C′ = <5X) | –
Cc1cccc(C(F)(F)F)c1COc1ccc(-n2cnc(Cn3cnc(CO)c3)c2)nc1 | 5.00 to 6.00 | 5.00 to 6.00 | A′ (A′ = ≥10X) | A′ (A′ = ≥10X) | –
OCC1CN(c2ncc(OCc3c(Cl)cccc3C3CC3)cn2)CCO1 (stereo not shown) | > 6.00 | > 6.00 | A′ (A′ = ≥10X) | A′ (A′ = ≥10X) | –
CCc1cccc(C(F)(F)F)c1COc1ccc(N2C[C@@H](CO)NC2=O)nc1 | > 6.00 | > 6.00 | C′ (C′ = <5X) | C′ (C′ = <5X) | –
OCc1nnc(-c2ccc(OCc3c(Cl)cccc3C(F)(F)F)cn2)o1 | > 6.00 | > 6.00 | C′ (C′ = <5X) | C′ (C′ = <5X) | –
OCc1ncn(-c2ccc(OCc3c(Cl)cccc3Cl)cn2)n1 [Example 337, (1-{5-[(2,6-dichlorophenyl)methoxy]pyridin-2-yl}-1,2,4-triazol-3-yl) methanol] | – | > 6.00 | – | C′ (C′ = <5X) | –
OCc1ccn(-c2cnc(OCc3c(Cl)cccc3Cl)cn2)n1 [Example 339, (1-{5-[(2,6-dichlorophenyl)methoxy]pyrazin-2-yl}pyrazol-3-yl) methanol] | – | – | – | C′ (C′ = <5X) | 5.00 to 6.00
OCc1cncn1-c1ncc(OCc2c(Cl)cccc2Cl)cn1 [Example 362, (3-{5-[(2,6-dichlorophenyl)methoxy]pyrimidin-2-yl}imidazol-4-yl) methanol] | – | – | – | A′ (A′ = ≥10X) | 5.00 to 6.00

Further lines, with some results ahead:

pEC50 [1] | pEC50 [2, 3] | Structure (SMILES) | CFTR G542X ACTIVITY Fold 10 μM G-418 [1] | CFTR R1162X ACTIVITY Fold 10 μM G-418 [2] | pEC50 [2, 4]
5.00 to 6.00 | < 5.00 | O=C(O)C1CN(c2ccc(OCc3c(Cl)cccc3C(F)(F)F)cn2)CCO1 (stereo not shown) | C′ (C′ = <5X) | C′ (C′ = <5X) | –
5.00 to 6.00 | 5.00 to 6.00 | O=C1COC(CO)CN1c1ccc(OCc2c(Cl)cccc2C(F)(F)F)cn1 (stereo not shown) | A′ (A′ = ≥10X) | A′ (A′ = ≥10X) | –
5.00 to 6.00 | 5.00 to 6.00 | CC(=O)NCC1CN(c2ccc(OCc3c(C)cccc3C(F)(F)F)cc2)C(=O)O1 (stereo not shown) | A′ (A′ = ≥10X) | A′ (A′ = ≥10X) | –
5.00 to 6.00 | < 5.00 | Cc1ccc(C(F)(F)F)c(COc2ccc(-n3cc(CO)nn3)cc2)c1F | B′ (B′ = ≥5X to <10X) | B′ (B′ = ≥5X to <10X) | –
> 6.00 | > 6.00 | Cc1cccc(C(F)(F)F)c1COc1ccc(-n2cnc(CO)n2)cc1 | A′ (A′ = ≥10X) | A′ (A′ = ≥10X) | –
> 6.00 | 5.00 to 6.00 | Cc1cccc(C(F)(F)F)c1COc1ccc(N2CCOC(CO)C2)cc1 (stereo not shown) | A′ (A′ = ≥10X) | A′ (A′ = ≥10X) | –
> 6.00 | > 6.00 | OCC1CN(c2ncc(OCc3c(Cl)cccc3C(F)(F)F)cn2)CCO1 (stereo not shown) | A′ (A′ = ≥10X) | A′ (A′ = ≥10X) | –
> 6.00 | > 6.00 | OCC1CN(c2ccc(OCc3c(Cl)cccc3C(F)(F)F)cn2)CCO1 (stereo not shown) | A′ (A′ = ≥10X) | A′ (A′ = ≥10X) | –
5.00 to 6.00 | 5.00 to 6.00 | OCC1CN(c2ncc(OCc3c(F)cccc3C(F)(F)F)cn2)CCO1 (stereo not shown) | A′ (A′ = ≥10X) | A′ (A′ = ≥10X) | –
5.00 to 6.00 | 5.00 to 6.00 | Cc1cccc(C(F)(F)F)c1COc1ccc(N2CCOC(CO)C2)nc1 (stereo not shown) | A′ (A′ = ≥10X) | A′ (A′ = ≥10X) | –
> 6.00 | > 6.00 | Cc1cccc(C(F)(F)F)c1COc1cnc(N2CCOC(CO)C2)nc1 (stereo not shown) | A′ (A′ = ≥10X) | A′ (A′ = ≥10X) | –
< 5.00 | < 5.00 | Cc1cccc(C(F)(F)F)c1COc1ccc2nc(CO)cn2c1 | A′ (A′ = ≥10X) | A′ (A′ = ≥10X) | –
